Measurements taken from patent US20250282790A1 (Temple University-Of The Commonwealth System of Higher …, priority 2016, published 2025).

target: 5HT7 receptors (Homo sapiens (Human), UniProt P34969); assay: Radiolabel Binding Studies for Serotonin 5-HT7 Receptors, Method 2 ([3H]-5HT competition; Ki and percent inhibition at 10 μM); details: radioligand competition binding
Protocol: Radiolabel Binding Studies for Serotonin 5-HT7 Receptors, Method 2:
A solution of the compound of the disclosure to be tested is prepared as a 1-mg/ml stock in Assay Buffer or DMSO according to its solubility. A similar stock of the reference compound chlorpromazine is also prepared as a positive control. Eleven dilutions (5×assay concentration) of the compound of the disclosure and chlorpromazine are prepared in the Assay Buffer by serial dilution to yield final corresponding assay concentrations ranging from 10 pM to 10 μM.
A stock concentration of 5 nM [^3H]-5-Hydroxytryptamine ([^3H]-5HT) is prepared in 50 mM Tris-HCl, 10 mM MgCl2, 1 mM EDTA, pH 7.4 (Assay Buffer). Aliquots (50 μl) of radioligand are dispensed into the wells of a 96-well plate containing 100 μl of Assay Buffer. Duplicate 50-μl aliquots of the compound of the disclosure test and chlorpromazine positive control reference compound serial dilutions are added.
Membrane fractions of cells expressing recombinant 5HT7 receptors (50 L) are dispensed into each well. The membranes are prepared from stably transfected cell lines expressing 5HT7 receptors cultured on 10-cm plates by harvesting PBS-rinsed monolayers, resuspending and lysing in chilled, hypotonic 50 mM Tris-HCl, pH 7.4, centrifuging at 20,000×g, decanting the supernatant and storing at −80° C.; the membrane preparations are resuspended in 3 ml of chilled Assay Buffer and homogenized by several passages through a 26 gauge needle before using in the assay.
The 250-μl reactions are incubated at room temperature for 1.5 hours, then harvested by rapid filtration onto 0.3% polyethyleneimine-treated, 96-well filter mats using a 96-well Filtermate harvester. Four rapid 500-μl washes are performed with chilled Assay Buffer to reduce non-specific binding. The filter mats are dried, then scintillant is added to the filters and the radioactivity retained on the filters is counted in a Microbeta scintillation counter.
Raw data (dpm) representing total radioligand binding (i.e., specific+non-specific binding) are plotted as a function of the logarithm of the molar concentration of the competitor (i.e., test or reference compound). Non-linear regression of the normalized (i.e., percent radioligand binding compared to that observed in the absence of test or reference compound) raw data is performed in Prism 4.0 (GraphPad Software) using the built-in three parameter logistic model describing ligand competition binding to radioligand-labeled sites:
where bottom equals the residual radioligand binding measured in the presence of 10 μM reference compound (i.e., non-specific binding) and top equals the total radioligand binding observed in the absence of competitor. The log IC50 (i.e., the log of the ligand concentration that reduces radioligand binding by 50%) is thus estimated from the data and used to obtain the Ki by applying the Cheng-Prusoff approximation:
where [ligand] equals the assay radioligand concentration and KD equals the affinity constant of the radioligand for the target receptor.
Compounds of the disclosure are also screened at a single concentration of 10 μM using the same method described for the Radiolabel Binding Studies for Serotonin 5HT7 receptors to determine the percent inhibition of [^3H]-5HT binding.

Chain of 5HT7 receptors (P34969 whole entry): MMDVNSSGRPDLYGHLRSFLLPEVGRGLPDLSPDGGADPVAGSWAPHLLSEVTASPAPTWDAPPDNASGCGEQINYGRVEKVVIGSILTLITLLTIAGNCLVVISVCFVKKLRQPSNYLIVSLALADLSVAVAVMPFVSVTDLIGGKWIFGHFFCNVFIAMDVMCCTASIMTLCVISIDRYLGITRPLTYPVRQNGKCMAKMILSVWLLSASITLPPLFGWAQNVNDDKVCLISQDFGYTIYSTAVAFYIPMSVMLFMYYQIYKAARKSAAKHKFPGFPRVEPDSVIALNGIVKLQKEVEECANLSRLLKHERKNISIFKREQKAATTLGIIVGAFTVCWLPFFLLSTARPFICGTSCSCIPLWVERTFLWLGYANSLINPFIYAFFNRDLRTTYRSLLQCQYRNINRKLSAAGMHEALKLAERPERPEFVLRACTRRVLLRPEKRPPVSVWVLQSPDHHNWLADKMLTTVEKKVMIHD

IC50 [nM]	Compound
149	Cc1ccc(N2CCN(CCC3CC4(CCNCC4)C(=O)O3)CC2)cc1 (centres unmarked) [Entry 2]
108	Cc1ccc(N2CCN(CCC3CC4(CCN(S(=O)(=O)c5ccc(Cl)cc5)CC4)C(=O)O3)CC2)cc1 (centres unmarked) [Example 12]
34	CS(=O)(=O)N1CCC2(CC1)CC(CCN1CCN(c3ccccc3N3CCOCC3)CC1)OC2=O (centres unmarked) [Entry 7]
461	CS(=O)(=O)N1CCC2(CC1)CC(CCN1CCN(c3ccc(C#N)cc3N3CCOCC3)CC1)OC2=O (centres unmarked) [Entry 19]
64	Cc1ccc(N2CCN(CCC3CC4(CCN(S(=O)(=O)c5ccccc5)CC4)C(=O)O3)CC2)cc1 (centres unmarked) [Entry 10]
18	Cc1ccc(N2CCN(CCC3CC4(CCN(Cc5ccccc5)CC4)C(=O)O3)CC2)cc1 (centres unmarked) [Entry 1]
67	Cc1ccc(N2CCN(CCC3CC4(CCN(S(C)(=O)=O)CC4)C(=O)O3)CC2)c(N2CCOCC2)c1 (centres unmarked) [Example 20]
81	COC(=O)N1CCC2(CC1)CC(CCN1CCN(c3ccc(C)cc3)CC1)OC2=O (centres unmarked) [Entry 3]
102	CNC(=O)N1CCC2(CC1)CC(CCN1CCN(c3ccc(C)cc3)CC1)OC2=O (centres unmarked) [Entry 5]
46	Cc1nc2cccc(N3CCN(CCC4CC5(CCN(S(C)(=O)=O)CC5)C(=O)O4)CC3)c2[nH]1 (centres unmarked) [Entry 8]
122	CC(=O)N1CCC2(CC1)CC(CCN1CCN(c3ccc(C)cc3)CC1)OC2=O (centres unmarked) [Entry 4]
93	Cc1ccc(N2CCN(CCC3CC4(CCN(S(C)(=O)=O)CC4)C(=O)O3)CC2)cc1 (centres unmarked) [Entry 6]
303	CS(=O)(=O)N1CCC2(CC1)CC(CCN1CCN(c3ccc(Cl)cc3)CC1)OC2=O (centres unmarked) [Entry 9]
77	COc1ccc(S(=O)(=O)N2CCC3(CC2)CC(CCN2CCN(c4ccc(C)cc4)CC2)OC3=O)cc1 (centres unmarked) [Entry 11]
75	CS(=O)(=O)N1CCC2(CC1)CC(CCN1CCN(c3ccc(O)cc3N3CCOCC3)CC1)OC2=O (centres unmarked) [Example 21]
96	Cc1ccc(N2CCN(CCC3CC4(CCN(S(=O)(=O)C5CCOCC5)CC4)C(=O)O3)CC2)cc1 (centres unmarked) [Example 13]
202	CS(=O)(=O)N1CCC2(CC1)CC(CCN1CCN(c3ccc(O)cc3)CC1)OC2=O (centres unmarked) [Example 22]
